Where a name gives a salt, the structure may show the parent alone.
Key:
recombinant human MMP-1 = molecular target: T1, recombinant human MMP-1 (Homo sapiens, UniProt P03956); assay: In vitro metalloprotease inhibition, fluorogenic MCA peptide substrate; type: biochemical; conditions: room temperature, pH 7.5, 4 μM substrate, APMA-activated enzyme
T1 construct: made in house; host or cells: transfected HT-1080 cells (provided by Dr. Howard Welgus, Washington University)
T1 sequence (P03956 100-469): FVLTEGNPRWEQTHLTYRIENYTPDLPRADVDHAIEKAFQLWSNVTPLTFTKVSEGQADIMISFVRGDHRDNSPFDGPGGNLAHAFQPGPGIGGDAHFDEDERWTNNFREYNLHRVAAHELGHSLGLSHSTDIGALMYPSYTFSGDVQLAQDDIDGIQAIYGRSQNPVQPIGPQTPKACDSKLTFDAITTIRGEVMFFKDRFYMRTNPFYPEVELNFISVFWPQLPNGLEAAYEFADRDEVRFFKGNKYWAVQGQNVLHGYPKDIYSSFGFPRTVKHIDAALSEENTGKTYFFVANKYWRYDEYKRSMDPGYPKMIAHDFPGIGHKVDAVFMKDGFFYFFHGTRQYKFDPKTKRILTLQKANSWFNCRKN
Method: (§1) Briefly, 4-aminophenylmercuric acetate (APMA) or trypsin activated MMPs were incubated with various concentrations of the inhibitor compound at room temperature for 5 minutes.
(§2) More specifically, recombinant human MMP-13 and MMP-1 enzymes were prepared in laboratories of the assignee. MMP-13 was expressed in baculovirus as a proenzyme, and purified first over a heparin agarose column and then over a chelating zinc chloride column. The proenzyme was activated by APMA for use in the assay. MMP-1 expressed in transfected HT-1080 cells was provided by Dr. Howard Welgus of Washington University, St. Louis, Mo. The enzyme was also activated using APMA and was then purified over a hydroxamic acid column.
(§3) MCA-ProLeuGlyLeuDpaAlaArgNH^2, wherein MCA is methoxycoumarin and Dpa is 3-(2,4-dinitrophenyl)-L-2,3-diaminopropionyl alanine.
(§4) The buffer used for assays contained 100 mM Tris-HCl, 100 mM NaCl, 10 mM CaCl2 and 0.05 percent polyethyleneglycol (23) lauryl ether at a pH value of 7.5.

recombinant human MMP-13 = molecular target: T2, recombinant human MMP-13 (Homo sapiens, UniProt P45452); assay: as above; type: biochemical; conditions: room temperature, pH 7.5, 4 μM substrate, APMA-activated enzyme
T2 construct: made in house
Method: as §1, §2, §3, §4

MMP-2 = molecular target: T3, MMP-2 (Homo sapiens, UniProt P08253); assay: as above; type: biochemical; conditions: room temperature, pH 7.5, 4 μM substrate
T3 sequence (P08253 110-660): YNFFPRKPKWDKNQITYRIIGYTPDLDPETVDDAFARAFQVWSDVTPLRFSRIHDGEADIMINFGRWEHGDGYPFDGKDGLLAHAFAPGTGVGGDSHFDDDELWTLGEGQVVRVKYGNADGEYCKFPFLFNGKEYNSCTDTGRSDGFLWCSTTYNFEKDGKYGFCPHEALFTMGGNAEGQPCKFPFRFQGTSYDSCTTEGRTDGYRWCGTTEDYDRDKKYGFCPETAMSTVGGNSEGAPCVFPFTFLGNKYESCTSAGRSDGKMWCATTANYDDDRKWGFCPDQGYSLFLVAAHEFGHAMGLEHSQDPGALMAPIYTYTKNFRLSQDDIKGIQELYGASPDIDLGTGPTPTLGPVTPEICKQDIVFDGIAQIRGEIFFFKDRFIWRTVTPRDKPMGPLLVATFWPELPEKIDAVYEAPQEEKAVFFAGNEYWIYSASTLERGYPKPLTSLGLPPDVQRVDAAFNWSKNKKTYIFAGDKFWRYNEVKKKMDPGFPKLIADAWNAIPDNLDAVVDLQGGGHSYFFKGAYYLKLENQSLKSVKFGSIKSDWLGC
Method: as §1, §3, §4

[1] = tested on: advanced, rapidly progressive, treatment-refractory solid tumor cancers; conditions: cited from earlier work

| Compound | IC50 (recombinant human MMP-1) [nM] | IC50 (recombinant human MMP-13) [nM] | IC50 (MMP-2) [nM] | effect on cancer-specific antigens used as surrogate markers for biological activity ([1]; Phase I/II, colorectal, pancreatic, ovarian, prostate cancers) | most common drug-related toxicity ([1]; clinical trials, patients with advanced solid tumor cancers) |
| --- | --- | --- | --- | --- | --- |
| CC(C)(CS(=O)(=O)c1ccc(Oc2ccccc2)cc1)[C@@H](O)C(=O)NO [Example 2] | > 10000 | 8.8 | 2 | – | – |
| O=C(NO)C(O)CCS(=O)(=O)c1ccc(Oc2ccccc2)cc1 (centres unmarked) [Example 4] | > 10000 | 54.4 | 15.8 | – | – |
| CC(C)(CS(=O)(=O)c1ccc(Oc2ccccc2)cc1)[C@H](OCc1ccccn1)C(=O)NO [Example 10] | – | 2.4 | 1.5 | – | – |
| CC(C)(CS(=O)(=O)c1ccc(Oc2ccccc2)cc1)[C@H](N)C(=O)NO [Example 12] | 3300 | 1.6 | 0.3 | – | – |
| CC(C)(CS(=O)(=O)c1ccc(Oc2ccccc2)cc1)[C@H](NC(=O)CN1CCOCC1)C(=O)NO [Example 13] | 770 | 1.4 | 0.3 | – | – |
| CC(C)(CS(=O)(=O)c1ccc(Oc2ccccc2)cc1)[C@H](NC(=O)CN1CCCC1)C(=O)NO [Example 14] | > 10000 | 2.4 | 1.8 | – | – |
| O=C(NO)C(CCS(=O)(=O)c1ccc(Oc2ccccc2)cc1)N1CCCCC1 (centres unmarked) [Example 15] | > 10000 | 13.9 | 7.7 | – | – |
| CC(C)(C)OC(=O)N1CCC(CCS(=O)(=O)c2ccc(Oc3ccccc3)cc2)(C(=O)NO)CC1 [Example 16] | > 10000 | 400 | 169 | – | – |
| CNC(=O)[C@@H](NC(=O)[C@H](CC(C)C)[C@H](O)C(=O)NO)C(C)(C)C [marimastat, Marimastat] | – | – | – | dose-related reduction in the rise of cancer-specific antigens | musculoskeletal pain and stiffness |

Continued, in another order:

| IC50 (recombinant human MMP-1) [nM] | IC50 (recombinant human MMP-13) [nM] | IC50 (MMP-2) [nM] | Compound | effect on cancer-specific antigens used as surrogate markers for biological activity ([1]; Phase I/II, colorectal, pancreatic, ovarian, prostate cancers) | most common drug-related toxicity ([1]; clinical trials, patients with advanced solid tumor cancers) |
| --- | --- | --- | --- | --- | --- |
| > 10000 | 400 | 120 | Cc1ccc(Oc2ccc(S(=O)(=O)CCC(O)C(=O)NO)cc2)cc1C (racemic) [Example 7] | – | – |
| 6300 | 1.9 | 0.3 | CC(C)(CS(=O)(=O)c1ccc(Oc2ccccc2)cc1)[C@H](O)C(=O)NO [Example 1] | – | – |
| > 10000 | 2600 | 1000 | CC(C)(CCS(=O)(=O)c1ccc(Oc2ccccc2)cc1)C(=O)NO [Example 3] | – | – |
| > 10000 | 1.8 | 3.2 | CC(CCS(=O)(=O)c1ccc(Oc2ccccc2)cc1)C(=O)NO (centres unmarked) [Example 5] | – | – |
| – | 2000 | – | COc1ccc(S(=O)(=O)CCCC(=O)NO)cc1 [Example 6] | – | – |
| > 10000 | 5 | 2.2 | CC(C)(CS(=O)(=O)c1ccc(Oc2ccccc2)cc1)[C@H](OCc1cccnc1)C(=O)NO [Example 8a, (S)-N-Hydroxy-3,3-dimethyl-4-[(4-phenoxyphenyl)sulfonyl]-2-(3-pyridinylmethoxy)butanamide] | – | – |
| 7000 | 3 | 1.3 | CC(C)(CS(=O)(=O)c1ccc(Oc2ccccc2)cc1)[C@H](OCc1ccncc1)C(=O)NO [Example 9a, (S)-N-Hydroxy-3,3-dimethyl-4-[(4-phenoxyphenyl)sulfonyl]-2-(4-pyridinylmethoxy)butanamide] | – | – |
| 50 | < 0.1 | < 0.1 | CC(C)(C)OC(=O)N[C@H](C(=O)NO)C(C)(C)CS(=O)(=O)c1ccc(Oc2ccccc2)cc1 [Example 11] | – | – |
| 1800 | 1.8 | 0.6 | CC(C)(CS(=O)(=O)c1ccc(Oc2ccccc2)cc1)[C@H](NC(=O)CN1CCOCC1)C(=O)NO [Example 13a, (S)-N-[1-[(Hydroxyamino)carbonyl]-2,2-dimethyl-3-[(4-phenoxyphenyl)sulfonyl]-propyl]-4-morpholineacetamide Monohydrochloride] | – | – |
| > 10000 | 169 | 70 | O=C(NO)C1(CCS(=O)(=O)c2ccc(Oc3ccccc3)cc2)CCNCC1 [Example 17] | – | – |
